Measured values reported in US5159077A, “Penam antibacterial compounds” (Hoffmann-La Roche Inc., priority 1989, dated 1992).
Structures can show the parent of a compound that is named as a salt. Where two headings read alike, the source gives them in different places.

Experiments:
[1] = system: Streptococcus 82; assay: In vitro MIC, Agar Well Diffusion Method; assay type: cell-based, Streptococcus aureus
Experimental: (§1) In vitro antimicrobial activity was determined in BBL seed agar. Serial dilutions of the test compound were pipetted into agar wells (80 μL per well). […] For reference, see A. H. Litton, Antibiotics: Assessment of Antimicrobial Activity and Resistance, Academic Press, New York, pages 19-30 (1983).

[2] = system: Klebsiella pneumoniae 369; assay: In vitro MIC, Agar Well Diffusion Method; assay type: cell-based
Experimental: as §1

[3] = system: Serratia marcescens SM; assay: In vitro MIC, Agar Well Diffusion Method; assay type: cell-based; conditions: read-out: In Vitro MIC
Experimental: as §1

[4] = system: Escherichia coli 1269B; assay: In vitro MIC, Agar Well Diffusion Method; assay type: cell-based; conditions: read-out: In Vitro MIC
Experimental: as §1

[5] = system: Streptococcus faecium ATCC 8043; assay: In vitro MIC, Agar Well Diffusion Method; assay type: cell-based; conditions: Enterococcus faecium
Experimental: as §1

[6] = system: Proteus vulgaris 101N; assay: In vitro MIC, Agar Well Diffusion Method; assay type: cell-based; conditions: read-out: In Vitro MIC
Experimental: as §1

[7] = system: Micrococcus luteus PCl; assay: In vitro MIC, Agar Well Diffusion Method; assay type: cell-based; conditions: read-out: In Vitro MIC
Experimental: as §1

[8] = system: Enterobacter cloacae 2952B; assay: In vitro MIC, Agar Well Diffusion Method; assay type: cell-based; conditions: read-out: In Vitro MIC
Experimental: as §1

[9] = system: Pseudomonas aeruginosa B; assay: In vitro MIC, Agar Well Diffusion Method; assay type: cell-based; conditions: read-out: In Vitro MIC
Experimental: as §1

[10] = system: Pseudomonas aeruginosa 56; assay: In vitro MIC, Agar Well Diffusion Method; assay type: cell-based
Experimental: as §1

[11] = system: Proteus mirabilis 2; assay: In vitro MIC, Broth Dilution Method; assay type: cell-based
Experimental: (§2) The diluted agents prepared in Mueller-Hinton broth were dispensed from a Dynatech MIC 2000 machine, in 100 microliter (μL) volumes into 96 well trays and used immediately or frozen at -10° to -70° C. until needed. Using a Dynatech inoculator and inoculum trays, 1.5 μL of a 10^-2 dilution of an overnight culture was added to each well of the tray. The tops of the trays were then sealed with tape, and the trays were incubated overnight at 37° C. and then examined with a viewer. The lowest concentration at which no growth was observed was considered to be the minimum inhibitory concentration (MIC).

[12] = system: Proteus mirabilis 90; assay: In vitro MIC, Broth Dilution Method; assay type: cell-based
Experimental: as §2

[13] = system: Enterobacter cloacae P99; assay: In vitro MIC, Broth Dilution Method; assay type: cell-based; conditions: P99, read-out: In Vitro MIC
Experimental: as §2

[14] = system: Enterobacter cloacae 5699; assay: In vitro MIC, Broth Dilution Method; assay type: cell-based; conditions: Enterobacter cloacae, 5699, read-out: In Vitro MIC
Experimental: as §2

[15] = system: Streptococcus faecalis ATCC 29212; assay: In vitro MIC, Broth Dilution Method; assay type: cell-based; conditions: Enterococcus faecalis
Experimental: as §2

[16] = system: Klebsiella pneumoniae A; assay: In vitro MIC, Broth Dilution Method; assay type: cell-based; conditions: read-out: In Vitro MIC
Experimental: as §2

[17] = system: Staphylococcus aureus ATCC 29213; assay: In vitro MIC, Broth Dilution Method; assay type: cell-based
Experimental: as §2

[18] = system: Proteus vulgaris ATCC 6380; assay: In vitro MIC, Broth Dilution Method; assay type: cell-based; conditions: Proteus vulgaris, ATCC6380, read-out: In Vitro MIC
Experimental: as §2

[19] = system: Serratia marcescens SM; assay: In vitro MIC, Broth Dilution Method; assay type: cell-based; conditions: read-out: In Vitro MIC
Experimental: as §2

[20] = system: Escherichia coli TEM-1; assay: In vitro MIC, Broth Dilution Method; assay type: cell-based; conditions: TEM1, read-out: In Vitro MIC
Experimental: as §2

[21] = system: Escherichia coli 4; assay: In vitro MIC, Broth Dilution Method; assay type: cell-based
Experimental: as §2

[22] = system: Citrobacter freundii BS-16; assay: In vitro MIC, Broth Dilution Method; assay type: cell-based; conditions: BS16; Broth Dilution Method; Citrobacter freundii BS-16; read-out: In Vitro MIC
Experimental: as §2

[23] = system: Pseudomonas aeruginosa ATCC 27853; assay: In vitro MIC, Broth Dilution Method; assay type: cell-based
Experimental: as §2

[24] = system: Streptococcus pneumoniae 6301; assay: In vitro MIC, Broth Dilution Method; assay type: cell-based
Experimental: as §2

[25] = system: Staphylococcus aureus Smith; assay: In vitro MIC, Broth Dilution Method; assay type: cell-based; conditions: read-out: In Vitro MIC
Experimental: as §2

[26] = system: Pseudomonas aeruginosa Stone 130; assay: In vitro MIC, Broth Dilution Method; assay type: cell-based; conditions: Pseudomonas aeruginosa, STONE130, read-out: In Vitro MIC
Experimental: as §2

[27] = Agar Well Diffusion Method, Streptococcus aureus 82, read-out: In Vitro MIC
[28] = Agar Well Diffusion Method, Klebsiella pneumoniae 369, read-out: In Vitro MIC
[29] = Agar Well Diffusion Method, Serratia marcescens SM
[30] = Agar Well Diffusion Method, Escherichia coli 1269B
[31] = ATCC8043, Agar Well Diffusion Method, Streptococcus faecium ATCC 8043, read-out: In Vitro MIC
[32] = Agar Well Diffusion Method, Proteus vulgaris 101N
[33] = Agar Well Diffusion Method, Micrococcus luteus PCl
[34] = Agar Well Diffusion Method, Enterobacter cloacae 2952B
[35] = Agar Well Diffusion Method, Pseudomonas aeruginosa B
[36] = Agar Well Diffusion Method, Pseudomonas aeruginosa 56, read-out: In Vitro MIC
[37] = Proteus mirabilis, 2, read-out: In Vitro MIC
[38] = ATCC29212, Broth Dilution Method, Streptococcus faecalis ATCC 29212, read-out: In Vitro MIC
[39] = Broth Dilution Method, Klebsiella pneumoniae A
[40] = Broth Dilution Method, Serratia marcescens SM
[41] = ATCC27853, Broth Dilution Method, Pseudomonas aeruginosa ATCC 27853, read-out: In Vitro MIC
[42] = Streptococcus, 82, read-out: In Vitro MIC
[43] = Klebsiella pneumoniae, 369, read-out: In Vitro MIC
[44] = ATCC8043, read-out: In Vitro MIC
[45] = Pseudomonas aeruginosa, 56, read-out: In Vitro MIC
[46] = Staphylococcus aureus, ATCC29213, read-out: In Vitro MIC
[47] = Escherichia coli, 4, read-out: In Vitro MIC

SMILES | MIC [1, 27] [µg/mL] | MIC [2, 28] [µg/mL] | MIC [3, 29] [µg/mL] | MIC [4, 30] [µg/mL] | MIC [5, 31] [µg/mL] | MIC [6, 32] [µg/mL] | MIC [7, 33] [µg/mL] | MIC [8, 34] [µg/mL] | MIC [9, 35] [µg/mL] | MIC [10, 36] [µg/mL] | MIC [11, 37] [µg/mL] | MIC [13] [µg/mL] | MIC [14] [µg/mL] | MIC [15, 38] [µg/mL] | MIC [16, 39] [µg/mL] | MIC [18] [µg/mL] | MIC [19, 40] [µg/mL] | MIC [20] [µg/mL] | MIC [22] [µg/mL] | MIC [23, 41] [µg/mL] | further results
CCn1cc(C(=O)O)c(=O)c2cc(F)c(N3CCN(C=N[C@@H]4C(=O)N5C(C(=O)O)=C(C)CS[C@H]45)CC3)cc21 [Compound C, 6R-[6α,7β(E(]]-7-[4-[[(2-Carboxy-3-methyl-8-oxo-5-thia-1-azabicyclo[4.2.0]oct-2-en-7-yl)imino]-methyl]-1-piperazinyl]-1-ethyl-6-fluoro-1,4-dihydro-4-oxo-3-quinolinecarboxylic acid disodium salt] | 15.6 | 3.9 | 3.9 | 3.9 | 500 | 0.98 | 250 | 7.8 | 3.9 | 3.9 | 0.063 | 0.125 | 0.063 | 8 | 0.125 | 0.063 | 0.125 | 0.063 | 0.25 | 2 | MIC ([12]; Broth Dilution Method, Proteus mirabilis 90, read-out: In Vitro MIC): 0.25 µg/mL; MIC ([17]; ATCC29213, Broth Dilution Method, Staphylococcus aureus ATCC 29213, read-out: In Vitro MIC): 1 µg/mL; MIC ([21]; Broth Dilution Method, Escherichia coli 4, read-out: In Vitro MIC): 0.125 µg/mL; MIC ([24]; Broth Dilution Method, Streptococcus pneumoniae 6301, read-out: In Vitro MIC): 8 µg/mL
CCn1cc(C(=O)O)c(=O)c2cc(F)c(N3CCN(C=N[C@@H]4C(=O)N5[C@@H]4SC(C)(C)[C@@H]5C(=O)O)CC3)cc21 [Compound B, [2S-(2α,5α,6β)]-7-[4-[[[2-(Carboxy)-3,3-dimethyl-7-oxo-4-thia-1-azabicyclo[3.2.0]hept-6-yl]imino]methyl]-1-piperazinyl]-1-ethyl-6-fluoro-1,4-dihydro-4-oxo-3-quinolinecarboxylic acid monosodium salt] | 7.8 | 3.9 | 62.5 | 0.98 | 62.5 | 1.95 | 31.3 | 15.6 | 7.8 | 7.8 | – | 0.063 | 0.063 | 2 | 0.125 | 0.063 | 0.125 | 0.031 | 0.25 | 8 | MIC ([11]; Broth Dilution Method, Proteus mirabilis 2, read-out: In Vitro MIC): 0.125 µg/mL; MIC ([25]; Broth Dilution Method, Staphylococcus aureus Smith): 0.25 µg/mL
CCn1cc(C(=O)[O-])c(=O)c2cc(F)c(N3CCN(C=N[C@@H]4C(=O)N(S(=O)(=O)[O-])[C@@H]4COC(N)=O)CC3)cc21.[Na+].[Na+] [Compound F, (2S-cis)-7-[4-[[[2-[[(Aminocarbonyl)oxy]methyl]-4-oxo-1-sulfo-3-azetidinyl]imino]methyl]-1-piperazinyl]-1-ethyl-6-fluoro-1,4-dihydro-4-oxo-3-quinolinecarboxylic acid disodium salt] | – | – | – | – | – | – | – | – | – | – | 0.063 | 0.125 | 0.063 | – | – | 0.031 | – | 0.063 | – | – | MIC [1, 42]: 31.3 µg/mL; MIC [2, 43]: 3.9 µg/mL; MIC ([3]; Serratia marcescens): 62.5 µg/mL; MIC ([4]; Escherichia coli, 1269B): 7.8 µg/mL; MIC [5, 44]: 500 µg/mL; MIC ([6]; Proteus vulgaris, 101N): 1.95 µg/mL; MIC ([7]; Micrococcus luteus): 500 µg/mL; MIC ([8]; Enterobacter cloacae, 2952B): 31.3 µg/mL; MIC ([9]; Pseudomonas aeruginosa): 7.8 µg/mL; MIC [10, 45]: 7.8 µg/mL; MIC ([15]; ATCC29212, read-out: In Vitro MIC): 4 µg/mL; MIC ([16]; Klebsiella pneumoniae): 0.125 µg/mL; MIC [17, 46]: 2 µg/mL; MIC ([19]; Serratia marcescens): 0.063 µg/mL; MIC [21, 47]: 0.125 µg/mL; MIC ([23]; Pseudomonas aeruginosa, ATCC27853, read-out: In Vitro MIC): 2 µg/mL; MIC ([24]; Streptococcus pneumoniae, 6301, read-out: In Vitro MIC): 8 µg/mL
CCn1cc(C(=O)[O-])c(=O)c2cc(F)c(N3CCN(C=N[C@H]4CN(S(=O)(=O)[O-])C4=O)CC3)cc21.[Na+].[Na+] [Compound E, (S)-1-Ethyl-6-fluoro-1,4-dihydro-4-oxo-7-[4-[[(1-sulfo-2-oxo-3-azetidinyl)imino]methyl]-1-piperazinyl]-3-quinolinecarboxylic acid disodium salt] | – | – | – | – | – | – | – | – | – | – | 0.063 | 0.063 | 0.125 | – | – | 0.031 | – | 0.063 | – | – | MIC [1, 42]: 15.6 µg/mL; MIC [2, 43]: 3.9 µg/mL; MIC ([3]; Serratia marcescens): 3.9 µg/mL; MIC ([4]; Escherichia coli, 1269B): 7.8 µg/mL; MIC [5, 44]: > 125 µg/mL; MIC ([6]; Proteus vulgaris, 101N): 1.95 µg/mL; MIC ([7]; Micrococcus luteus): > 125 µg/mL; MIC ([8]; Enterobacter cloacae, 2952B): 31.3 µg/mL; MIC ([9]; Pseudomonas aeruginosa): 3.9 µg/mL; MIC [10, 45]: 7.8 µg/mL; MIC [26]: 1 µg/mL; MIC ([12]; Proteus mirabilis, 90, read-out: In Vitro MIC): 0.063 µg/mL; MIC ([16]; Klebsiella pneumoniae): 0.125 µg/mL; MIC [17, 46]: 2 µg/mL; MIC ([19]; Serratia marcescens): 0.063 µg/mL; MIC ([25]; Staphylococcus aureus): 0.5 µg/mL; MIC [21, 47]: 0.125 µg/mL
